# PMC6672008, “Small molecule degraders of the hepatitis C virus protease reduce susceptibility to resistance mutations” (Nature Communications, 2019)
# Several values for one entry are separate records, joined by “and”; a condition that tells them apart may be missing. Identical values can stand only once. Entries after “also recorded” stand apart in the source; their conditions may differ. Like-named read-outs stand apart in the source and are kept apart here.
# Experiments:
# [1] = target: T1, CRBN (Homo sapiens, UniProt Q96SW2); assay: Competitive displacement assay for cellular CRBN engagement (rescue of dBET6-mediated BRD4BD2-eGFP degradation); format: cell-based; settings: co-treated with 100 nM dBET6, 5 h
# [2] = target: HCV NS3-eGFP protein fusion (Hepatitis C virus genotype 2a, UniProt Q99IB8); format: cell-based; settings: for DC50: 4 h treatment; for degradation of HCV NS3 in the transient assay (in words): increasing concentrations
# [3] = tested on: HCV-JFH1-ad; assay: microbe, parasite or virus in culture; format: cell-based, hepatitis C virus
# [4] = Cytotoxicity assay (CellTiter-Glo, 24 h); format: cell-based; settings: human, CC50 (50% loss of viability)
# [5] = target: T2, HCV NS3 (Hepatitis C virus genotype 2a, UniProt Q99IB8); format: cell-based; settings: percentage of DMSO-treated control, 1000 nM (legend; picture prints 500nM)
# [6] = target: T2, HCV NS3; format: cell-based; settings: 1000 nM, 4 h
# [7] = target: DDB1∆B-CRBN (Homo sapiens, UniProt Q96SW2); assay: CRBN-binding assay (fluorescence polarization, displacement of Atto565-lenalidomide); settings: fluorescence polarization competition
# Protocol: Measurement of compounds binding to CRBN was performed by fluorescence polarization. […] Compounds were dispensed using a D300e Digital Dispenser (HP), normalized to 1% DMSO, and incubated for 60 min at room temperature. The change in fluorescence polarization was monitored using a PHERAstar FS microplate reader (BMG Labtech) for 20 min in 200 s cycles. […]
# Increasing concentrations of compounds were titrated to preformed DDB1∆B-CRBN-lenalidomideAtto565 complex. Data are presented as means normalized to DMSO ± standard deviation of n = 4 technical replicates. […]
# d Measurement of NS3/4A protease inhibition in vitro. Cell lysates containing the endogenous NS3/4A protease were prepared from cells stably expressing an HCV […]
# subgenomic replicon. […]
# [8] = tested on: HCV NS3; format: cell-based, hepatitis C virus; settings: 1000 nM, 4 h; selectivity
# [9] = tested on: wildtype HCV-Jc1; assay: microbe, parasite or virus in culture; format: cell-based, hepatitis C virus
# [10] = tested on: HCV-NS3-V55A; assay: microbe, parasite or virus in culture; format: cell-based, hepatitis C virus
# [11] = tested on: HCV-NS3-A156S; assay: microbe, parasite or virus in culture; format: cell-based, hepatitis C virus; settings: for change in antiviral potency, NS3-A156S vs wildtype: ratio of IC50 values
# [12] = target: T1, CRBN; assay: Cellular thermal shift assay for CRBN engagement (HEK293T cells); format: cell-based; settings: 1 h at 37 °C, heated at 61 °C, dose-response
# [13] = tested on: Huh7.5-SGR cells; assay: Cytotoxicity assay (CellTiter-Glo, 24 h); format: cell-based; settings: read-out: CC50 (50% loss of viability), single experiments, individual experiments
# [14] = 500 nM compound + 500 nM lenalidomide, 4 h, Supplementary Fig. 4c
# [15] = 500 nM compound + 5000 nM lenalidomide, 4 h, Supplementary Fig. 4c
# [16] = 500 nM compound + DMSO, 4 h, Supplementary Fig. 4c
# [17] = read-out: NS3-eGFP degradation DC50, average value reported, average of n ≥ 2 independent experiments
# [18] = read-out: NS3-eGFP degradation DC50, single experiments, individual experiments (source data)
# [19] = Hepatitis C virus, Huh7.5, read-out: antiviral IC50 (50% reduction in viral titers), single experiments, Huh7.5, MOI 0.1, treated 24 to 48 h post-infection, individual experiments
# [20] = read-out: antiviral IC50 (50% reduction in viral titers), single experiments, Huh7.5, MOI 0.1, treated 24 to 48 h post-infection, individual experiments
# [21] = average value reported, averaged from n = 2
# [22] = single experiments, individual experiments
# [23] = Huh7.5 CRBN-/-, HCV-JFH1-ad MOI 0.1, 24 to 48 h post-infection
# [24] = wildtype Huh7.5, HCV-JFH1-ad MOI 0.1, 24 to 48 h post-infection
# [25] = 1000 nM compound + 5000 nM lenalidomide, 4 h, Fig. 2d
# [26] = 1000 nM compound + DMSO, 4 h, Fig. 2d
# [27] = Hepatitis C virus, Huh7.5, read-out: antiviral IC50 (50% reduction in viral titers), average value reported, Huh7.5, MOI 0.1, treated 24 to 48 h post-infection, average of n ≥ 2 experiments
# [28] = Hepatitis C virus, Huh7.5, read-out: antiviral IC50, wildtype virus, average value reported, Huh7.5, MOI 0.1, treated 24 to 48 h post-infection
# [29] = Hepatitis C virus, Huh7.5, read-out: antiviral IC50, wildtype virus, single experiments, Huh7.5, MOI 0.1, treated 24 to 48 h post-infection
# [30] = read-out: antiviral IC50, wildtype virus, single experiments, Huh7.5, MOI 0.1, treated 24 to 48 h post-infection
# [31] = Hepatitis C virus, Huh7.5, read-out: antiviral IC50, NS3-V55A virus, average value reported, Huh7.5, MOI 0.1, treated 24 to 48 h post-infection
# [32] = Hepatitis C virus, Huh7.5, read-out: antiviral IC50, NS3-V55A virus, single experiments, Huh7.5, MOI 0.1, treated 24 to 48 h post-infection
# [33] = read-out: antiviral IC50, NS3-V55A virus, single experiments, Huh7.5, MOI 0.1, treated 24 to 48 h post-infection
# [34] = Hepatitis C virus, Huh7.5, read-out: antiviral IC50, NS3-A156S virus, average value reported, Huh7.5, MOI 0.1, treated 24 to 48 h post-infection
# [35] = Hepatitis C virus, Huh7.5, read-out: antiviral IC50, NS3-A156S virus, single experiments, Huh7.5, MOI 0.1, treated 24 to 48 h post-infection
# [36] = read-out: antiviral IC50, NS3-A156S virus, single experiments, Huh7.5, MOI 0.1, treated 24 to 48 h post-infection
SMILES,EC50 [1],"NS3-eGFP/mCherry ratio normalized to DMSO, average [2, 14]","NS3-eGFP/mCherry ratio normalized to DMSO, single experiments [2, 14]","NS3-eGFP/mCherry ratio normalized to DMSO, average [2, 15]","NS3-eGFP/mCherry ratio normalized to DMSO, single experiments [2, 15]","NS3-eGFP/mCherry ratio normalized to DMSO, average [2, 16]","NS3-eGFP/mCherry ratio normalized to DMSO, single experiments [2, 16]","DC50 [2, 17]","DC50 [2, 18]","IC50 [3, 19]","IC50 [3, 20]","CC50 at 24 h [4, 21]","CC50 at 24 h [4, 22]","relative NS3 levels (normalized to GAPDH), CRBN-/- cells, average [5, 23]","relative NS3 levels (normalized to GAPDH), wildtype cells, average [5, 24]","NS3-eGFP/mCherry ratio normalized to DMSO, average [2, 25]","NS3-eGFP/mCherry ratio normalized to DMSO, single experiments [2, 25]","NS3-eGFP/mCherry ratio normalized to DMSO, average [2, 26]","NS3-eGFP/mCherry ratio normalized to DMSO, single experiments [2, 26]","IC50 [3, 27]",further results
CCC[C@H](NC(=O)[C@@H]1[C@H]2CCC[C@H]2CN1C(=O)[C@@H](NC(=O)[C@@H](NC(=O)c1cnc(C(=O)NCCOCCOCCNc2cccc3c2C(=O)N(C2CCC(=O)NC2=O)C3=O)cn1)C1CCCCC1)C(C)(C)C)C(=O)C(=O)NC1CC1 (stereo partly drawn) [DGY-04-035],641 nM,0.66,0.67 and 0.64,0.86,0.87 and 0.85,0.54,0.54 and 0.53,489 nM,444 nM and 438 nM and 379 nM and 650 nM and 532 nM,2160 nM,2650 nM and 3950 nM,> 40000 nM,> 40000 nM,87%,48%,–,–,–,–,–,"relative NS3 levels (normalized to GAPDH), CRBN-/- cells, single experiments [5, 23]: 107% and 74% and 80%; relative NS3 levels (normalized to GAPDH), wildtype cells, single experiments [5, 24]: 54% and 46% and 44%"
CCC[C@H](NC(=O)[C@@H]1[C@H]2CCC[C@H]2CN1C(=O)[C@@H](NC(=O)[C@@H](NC(=O)c1cnc(C(=O)NCCOCCOCCOc2cc3c4c(cccc4c2)C(=O)N(C2CCC(=O)N(C)C2=O)C3=O)cn1)C1CCCCC1)C(C)(C)C)C(=O)C(=O)NC1CC1 (stereo partly drawn) [DGY-08-097-BUMP],–,–,–,–,–,–,–,–,–,–,–,> 40000 nM,> 40000 nM,–,–,0.96,0.92 and 1.00,0.92,0.92,–,degradation of HCV NS3 in the transient assay (in words) ([2]; 4 h): neither compound induced degradation of HCV NS3; change of HCV NS3 abundance vs DMSO (in words) [6]: No significant degradation of HCV NS3 or any other cellular protein; also recorded: unaffected; binding to CRBN (in words) [7]: Neither DGY-04-035-BUMP nor DGY-08-097-BUMP exhibit detectable binding to CRBN; also recorded: loss of CRBN-binding
CCC[C@H](NC(=O)[C@@H]1[C@H]2CCC[C@H]2CN1C(=O)[C@@H](NC(=O)[C@@H](NC(=O)c1cnc(C(=O)NCCOCCOCCOc2cc3c4c(cccc4c2)C(=O)N(C2CCC(=O)NC2=O)C3=O)cn1)C1CCCCC1)C(C)(C)C)C(=O)C(=O)NC1CC1 (stereo partly drawn) [DGY-08-097],703 nM,–,–,–,–,–,–,50 nM,51 nM and 49 nM and 46 nM and 54 nM,–,706 nM and 627 nM and 425 nM and 1230 nM,> 40000 nM,> 40000 nM,–,–,0.60,0.62 and 0.58,0.24,0.23 and 0.25,748 nM,"concentrations at which a hook effect was observed in the transient NS3 degradation assay ([2]; 4 h): above 1000 nM; degradation of IMiDs neo-substrates IKZF1 and IKZF3 [8]: no degradation; other proteins significantly affected (of ~8700 quantified) [8]: no other protein of the ~8700 quantified was observed to be significantly affected; IC50 [9, 28]: 558 nM; IC50 [9, 29]: 630 nM; IC50 [9, 30]: 417 nM and 627 nM; IC50 [10, 31]: 508 nM; IC50 [10, 32]: 403 nM; IC50 [10, 33]: 380 nM and 742 nM; IC50 [11, 34]: 1560 nM; IC50 [11, 35]: 2020 nM; change in antiviral potency, NS3-A156S vs wildtype [11]: 3 fold; IC50 [11, 36]: 1110 nM; stabilization of CRBN in cellular thermal shift assay [12]: concentration-dependent stabilization of CRBN"
"CCC[C@H](NC(=O)[C@@H]1[C@H]2CCC[C@H]2CN1C(=O)[C@@H](NC(=O)[C@@H](NC(=O)c1cnccn1)C1CCCCC1)C(C)(C)C)C(=O)C(=O)NC1CC1 [telaprevir, reference compound]",–,–,–,–,–,–,–,–,–,–,114 nM and 91 nM and 86 nM and 236 nM,28000 nM,32000 nM,–,–,–,–,–,–,132 nM,"IC50 [9, 28]: 98 nM; IC50 [9, 29]: 110 nM; IC50 [9, 30]: 72 nM and 111 nM; IC50 [10, 31]: 288 nM; IC50 [10, 32]: 190 nM; change in antiviral potency, NS3-V55A vs wildtype ([10]; ratio of IC50 values): 3 fold; IC50 [10, 33]: 304 nM and 372 nM; IC50 [11, 34]: 949 nM; IC50 [11, 35]: 756 nM; change in antiviral potency, NS3-A156S vs wildtype [11]: 10 fold; IC50 [11, 36]: 1140 nM; CC50 [13]: > 40000 nM and 24000 nM"
CCC[C@H](NC(=O)[C@@H]1[C@H]2CCC[C@H]2CN1C(=O)[C@@H](NC(=O)[C@@H](NC(=O)c1cnc(C(=O)NCCCCCCNc2cccc3c2CN(C2CCC(=O)NC2=O)C3=O)cn1)C1CCCCC1)C(C)(C)C)C(=O)C(=O)NC1CC1 (stereo partly drawn) [DGY-03-081],576 nM,0.71,0.72 and 0.71,0.84,0.85 and 0.83,0.65,0.65 and 0.64,669 nM,642 nM and 695 nM,3300 nM,2840 nM,> 40000 nM,> 40000 nM,101%,50%,–,–,–,–,3070 nM,–
CCC[C@H](NC(=O)[C@@H]1[C@H]2CCC[C@H]2CN1C(=O)[C@@H](NC(=O)[C@@H](NC(=O)c1cnc(C(=O)NCCOCCOCCNc2cccc3c2C(=O)N(C2CCC(=O)N(C)C2=O)C3=O)cn1)C1CCCCC1)C(C)(C)C)C(=O)C(=O)NC1CC1 (stereo partly drawn) [DGY-04-035-BUMP],–,0.98,0.98 and 0.99,0.98,1.00 and 0.97,0.98,0.98 and 0.99,–,–,–,–,> 40000 nM,> 40000 nM,–,–,–,–,–,–,–,degradation of HCV NS3 in the transient assay (in words) ([2]; 4 h): neither compound induced degradation of HCV NS3; binding to CRBN (in words) [7]: Neither DGY-04-035-BUMP nor DGY-08-097-BUMP exhibit detectable binding to CRBN; also recorded: loss of CRBN-binding
